In PubChem BioAssay AID2060897 (Molecular Pharmacology Branch, DTP, NCI, 2025):

Tested on: 966289-007-R4-J1-PDC complex spheroid viability
Assay: Anticancer human tumor 966289-007-R4-J1-PDC patient-derived pancreatic adenocarcinoma cell line growth inhibition [RAS]
Conditions: for viability, T/C: stronger effect = lower value; active = viability on the fitted dose curve at most 10% of control; inactive = the rest
Summary of the method: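 Multi-cell-type spheroids: tumor cells plus HUVEC endothelial cells and mesenchymal stem cells. RAS-pathway inhibitors were combined with targeted agents, each dosed in half-log steps down from clinical Cmax, or from 10 microM when Cmax was unknown.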
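Note: spheroids exposed to agents for one week before readout.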
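Throughout, for viability, T/C: percent viability relative to DMSO vehicle control wells as 100%.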

Nc1ccn(C2OC(CO)C(O)C2(F)F)c(=O)n1 (stereo unspecified) + CCn1c(-c2cccnc2C(C)OC)c2c3cc(ccc31)N1CCOC(CC(NC(=O)C(C(C)C)N(C)C(=O)C3(F)CCN(C(=O)C#CC(C)(C)N(C)C)CC3)C(=O)N3CCCC(N3)C(=O)OCC(C)(C)C2)C1
active: viability, T/C (second compound 0.000949 µM, first compound 0.0316 µM) 1.45% | viability, T/C (second compound 0.000949 µM, first compound 0.1 µM) 0.78% | viability, T/C (second compound 0.000949 µM, first compound 0.316 µM) 0.73% | viability, T/C (second compound 0.000949 µM, first compound 1 µM) 0.9% | viability, T/C (second compound 0.003 µM, first compound 0.0316 µM) 1.03% | viability, T/C (second compound 0.003 µM, first compound 0.1 µM) 0.84% | viability, T/C (second compound 0.003 µM, first compound 0.316 µM) 1.07% | viability, T/C (second compound 0.003 µM, first compound 1 µM) 1.18% | viability, T/C (second compound 0.00949 µM, first compound 0.01 µM) 9.69% | viability, T/C (second compound 0.00949 µM, first compound 0.0316 µM) 0.94% | viability, T/C (second compound 0.00949 µM, first compound 0.1 µM) 0.85% | viability, T/C (second compound 0.00949 µM, first compound 0.316 µM) 0.87% | viability, T/C (second compound 0.00949 µM, first compound 1 µM) 1.1% | viability, T/C (second compound 0.03 µM, first compound 0.01 µM) 8.78% | viability, T/C (second compound 0.03 µM, first compound 0.0316 µM) 0.83% | viability, T/C (second compound 0.03 µM, first compound 0.1 µM) 1.03% | viability, T/C (second compound 0.03 µM, first compound 0.316 µM) 1.23% | viability, T/C (second compound 0.03 µM, first compound 1 µM) 0.98% | viability, T/C (second compound 0.0949 µM, first compound 0.01 µM) 6.25% | viability, T/C (second compound 0.0949 µM, first compound 0.0316 µM) 0.85% | viability, T/C (second compound 0.0949 µM, first compound 0.1 µM) 0.82% | viability, T/C (second compound 0.0949 µM, first compound 0.316 µM) 1.11% | viability, T/C (second compound 0.0949 µM, first compound 1 µM) 1.25% | viability, T/C (second compound 0.3 µM, first compound 0.01 µM) 3.9% | viability, T/C (second compound 0.3 µM, first compound 0.0316 µM) 0.92% | viability, T/C (second compound 0.3 µM, first compound 0.1 µM) 0.98% | viability, T/C (second compound 0.3 µM, first compound 0.316 µM) 0.91% | viability, T/C (second compound 0.3 µM, first compound 1 µM) 1.22%
5.27 nM: IC50 (curve of first compound, second compound 0.3 µM)
4.48 nM: IC50 (curve of first compound, second compound 0.00949 µM)
inactive: viability, T/C (second compound 0.000949 µM, first compound 0.00316 µM) 119% | viability, T/C (second compound 0.000949 µM, first compound 0.01 µM) 18.9% | viability, T/C (second compound 0.003 µM, first compound 0.00316 µM) 87.3% | viability, T/C (second compound 0.003 µM, first compound 0.01 µM) 12.3% | viability, T/C (second compound 0.00949 µM, first compound 0.00316 µM) 67.6% | viability, T/C (second compound 0.03 µM, first compound 0.00316 µM) 64% | viability, T/C (second compound 0.0949 µM, first compound 0.00316 µM) 72.2% | viability, T/C (second compound 0.3 µM, first compound 0.00316 µM) 86.9%
4.23 nM: IC50 (curve of first compound, second compound 0.03 µM)
4.66 nM: IC50 (curve of first compound, second compound 0.0949 µM)
5.6 nM: IC50 (curve of first compound, second compound 0.003 µM)
7.01 nM: IC50 (curve of first compound, second compound 0.000949 µM)

C=CC(=O)N1CCN(c2nc(OCC3CCCN3C)nc3c(F)c(-c4nc(N)cc(C)c4C(F)(F)F)c(Cl)cc23)C(C)C1 (stereo unspecified)
> 1000 nM: IC50 (compound alone, run of 06/10/2024) | IC50 (curve of compound)

CCn1c(-c2cc(N3CCN(C)CC3)cnc2C(C)OC)c2c3cc(ccc31)-c1csc(n1)CC(NC(=O)C1CC1C)C(=O)N1CCCC(N1)C(=O)OCC(C)(C)C2 (stereo unspecified)
> 300 nM: IC50 (compound alone, run of 05/20/2024)
inactive: viability, T/C (compound 0.000949 µM) 97.8% [middle of 8 runs]
